Test results from patent publication US20150258062A1, “COMPOSITIONS AND METHODS FOR TREATMENT OF RENAL DISEASE” (priority 2009, published 2015).

Tests used:
[1] = Clinic case studies: serum laboratory profile (uric acid, potassium, creatinine, urea nitrogen); format: in vivo, human
[2] = Clinic case studies: blood pressure, pulse, body weight, edema, GFR, EKG; format: in vivo, human
[3] = test system: slow component of the delayed rectifier K+ current (IKs); details: cited from earlier work
Inward sodium current = details: Table 1; cited from earlier work
Inward Calcium current = details: Table 1; cited from earlier work
[4] = test system: Outward potassium current; details: Table 1; cited from earlier work
[5] = test system: ventricular repolarization, QT interval and Torsade; details: cited from earlier work
[6] = test system: non-diabetic patients already receiving dual therapy with both an ACEI plus an ARB agent; details: after 1 year; non-diabetic patients on ACEI plus ARB; independent of BP changes; cited from earlier work

CC1Cc2ccccc2N1NC(=O)c1ccc(Cl)c(S(N)(=O)=O)c1 (stereo not drawn) [indapamide, 4-chloro-N-(2-methyl-2,3-dihydroindol-1-yl)-3-sulfamoyl-benzamide]
uric acid ([1]; Case 1, Day 25, indapamide 2.5 mg with losartan 50 mg, terazosin 2 mg): 7.5 mg/dL | creatinine ([1]; Case 1, Day 25, indapamide 2.5 mg with losartan 50 mg, terazosin 2 mg, Day 0 value 2.3): 2.6 mg/dL | urea nitrogen ([1]; Case 1, Day 25, indapamide 2.5 mg with losartan 50 mg, terazosin 2 mg, Day 0 value 46): 36 mg/dL | serum uric acid ([1]; Case 4, indapamide 1.25 mg per day with losartan, amlodipine, after 9 months, baseline 7.5): 7.0 mg/dL | serum potassium ([1]; Example 3 Case 1, stage 4 CKD, Day 25, on indapamide 2.5 mg, losartan 50 mg, terazosin 2 mg since Day 13, Day 0 value 5.2): 4.1 mmol/L | serum creatinine and urea nitrogen ([1]; Example 3 Case 4, diabetic nephropathy, losartan 100 mg, amlodipine 5 mg, indapamide 1.25 mg per day, after 9 months): unchanged | pedal edema ([2]; Case 1, Day 34, indapamide 2.5 mg with losartan 50 mg, terazosin 2 mg, before spironolactone): decreased | blood pressure ([2]; Case 1, Day 34, indapamide 2.5 mg with losartan, terazosin, Day 13 value 142/82): 150/90 | blood pressure ([2]; Example 3 Case 2, diabetic nephropathy, 6 months, 1 month after indapamide 1.25 mg, diltiazem 300 mg started and losartan raised to 100 mg, before 168/108): 145/93 | effect on IKs [3]: blocks | action on inward sodium current (Inward sodium current): No effect | action on inward calcium current (Inward Calcium current): No effect | action on outward potassium current [4]: Slows | QT dispersion ([5]; Table 1): increased | QT interval ([5]; Table 1): prolongs | Torsade ([5]; Table 1): prediposes | QT interval and torsade de pointes in patients ([5]; in the presence of normal electrolytes (Letsas, Alexanian et al. 2006)): QT interval prolongation and torsade de pointes

CC(=O)S[C@@H]1CC2=CC(=O)CC[C@]2(C)[C@H]2CC[C@@]3(C)[C@@H](CC[C@@]34CCC(=O)O4)[C@H]12 [spironolactone]
additive reduction of proteinuria [6]: 58%

C[C@]12CCC(=O)C=C1CC[C@@H]1[C@@H]2[C@@H](O)C[C@]2(C=O)[C@@H](C(=O)CO)CC[C@@H]12 [Aldosterone]
action on inward sodium current (Inward sodium current): Incresases | action on inward calcium current (Inward Calcium current): Increases | action on outward potassium current [4]: No effect
